Patent publication US20210330611A1, “THERAPY FOR NEUROLOGICAL DISEASES/DISORDERS” (priority 2020, published 2021)
Where two headings read alike, the source gives them in different places.

Tests used:
[1] = test system: fibrin- and LPS-induced microglia activation; assay: cells; type: cell-based, rat; details: for inhibition at 10 µM: Rattus norvegicus; for Activity: Table 7, fib = fibrin, LPS, tox = toxicity
[2] = test system: LPS-induced microglia activation; assay: Image-based assay of LPS-induced microglia activation (HTS and dose response); type: cell-based, rat; details: for inhibition at 10 µM / LPS % inhibition: primary microglia HTS; for inhibition at 10 µM: read-out: LPS % inhibition
primary rat microglia [3] = assay: Cell toxicity (dead cells, size <150 μm2) in LPS assay; details: for LPS % cell toxicity: primary microglia HTS, LPS stimulation, decreased size (<150 μm^2) as marker of toxicity; for IC50: read-out: Cell Toxicity IC50 (uM) [LPS assay]
in vitro [4] = details: rat
in vitro [5] = details: rat, Cell Toxicity IC50 (uM) [cFib assay]
[6] = test system: fibrin-induced microglia activation; assay: Image-based assay of fibrin-induced microglia activation (HTS and dose response); type: cell-based, rat; details: for inhibition at 10 µM / Fibrin % inhibition: primary microglia HTS; for inhibition at 10 µM: read-out: Fibrin % inhibition
primary rat microglia [7] = assay: Cell toxicity (dead cells, size <150 μm2) in coated fibrin (cFib) assay; details: for Fibrin % cell toxicity: primary microglia HTS, fibrin stimulation, decreased size (<150 μm^2) as marker of toxicity;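 for Fibrin % cell toxicity: share of dead cells sized under 150 µm2 at 10 µM in fibrin-stimulated microglia HTS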
primary rat microglia [8] = test system: primary rat microglia
primary rat microglia [9] = test system: primary rat microglia; remark: listed apart in the source
[10] = HTS of 1907 compounds, quadrant by fibrin and LPS inhibition
[11] = Microglia, HTS hit classification, read-out: Hit
[12] = hit classification in microglia HTS, read-out: Cherry-picked Hit (Suppl. Table 7)
[13] = quadrant by fibrin and LPS inhibition in HTS of 1907 compounds
[14] = Rattus norvegicus, Microglia, 48 h, Table 1, dose response 0.001-20 μM, triplicates, primary rat microglia, 48 h, read-out: LPS IC50
[15] = Rattus norvegicus, Microglia, 48 h, LPS stimulation, increased cell size (>800 μm^2) as marker of activation
[16] = Rattus norvegicus, Microglia, LPS-induced microglia activation, dose response, read-out: LPS IC50 (uM) (Suppl. Table 7)
[17] = Rattus norvegicus, Microglia, dose response, LPS-induced microglia activation, read-out: LPS IC50
[18] = Rattus norvegicus, Microglia, 48 h, Table 1, dose response 0.001-20 μM, triplicates, primary rat microglia, 48 h, read-out: Fibrin IC50
[19] = Rattus norvegicus, Microglia, dose response, fibrin-induced microglia activation, read-out: Fibrin IC50
[20] = Rattus norvegicus, Microglia, fibrin-induced microglia activation, dose response, read-out: Fibrin IC50 (uM) (Suppl. Table 7)
[21] = Rattus norvegicus, Microglia, fibrin stimulation, increased cell size (>800 μm^2) as marker of activation
[22] = Microglia, Table 3, read-out: Cherry-picked Hit (Suppl. Table 7)
[23] = Rattus norvegicus, Microglia, Table 3, read-out: LPS IC50 (uM) (Suppl. Table 7)
[24] = Rattus norvegicus, Microglia, Table 3, read-out: Fibrin IC50 (uM) (Suppl. Table 7)
[25] = hit classification in microglia HTS
[26] = LPS-induced microglia activation, dose response, read-out: LPS IC50 (uM) (Suppl. Table 7)
[27] = Table 1, dose response 0.001-20 μM, triplicates, primary rat microglia, 48 h, read-out: LPS IC50
[28] = dose response, LPS-induced microglia activation, read-out: LPS IC50
[29] = LPS stimulation, increased cell size (>800 μm^2) as marker of activation
[30] = fibrin stimulation, increased cell size (>800 μm^2) as marker of activation
[31] = read-out: Cell Toxicity IC50 (uM) [cFib assay], cFib assay

SMILES | Quadrant (FIG. 5b) [1, 10] | inhibition at 10 µM [1, 11] [%] | inhibition at 10 µM [1, 12] [%] | Quadrant (FIG. 5b) ([1]; Table 1, screen at 10 μM) | Quadrant (FIG. 5b) [1, 13] | IC50 [2, 14] [µM] | inhibition at 10 µM [2, 15] [%] | IC50 [2, 16] [µM] | IC50 [2, 17] [µM] | IC50 (in vitro [4]) [nM] | IC50 (in vitro [5]; cFib assay) [µM] | IC50 [6, 18] [µM] | IC50 [6, 19] [µM] | IC50 [6, 20] [µM] | inhibition at 10 µM [6, 21] [%] | Quadrant (FIG. 5b) ([1]; Table 3, screen at 10 μM) | IC50 (primary rat microglia [3]; LPS assay) [µM] | other results
COc1c(C)c2c(c(O)c1C/C=C(\C)CCC(=O)O)C(=O)OC2 [Mycophenolic acid, reference compound] | Q2 | > 50 | > 50 | Q2 | Q2 | 1 | 91 | 1 | 1 | > 20000 | > 20 | 1 | 1 | 1 | 94 | – | – | Quadrant (FIG. 5b) ([1]; Table 2, screen at 10 μM): Q2; Activity [1]: fib/LPS; LPS % cell toxicity (primary rat microglia [3]): 2%; Fibrin % cell toxicity (primary rat microglia [7]): 1%
C[C@@H]1C[C@H]2[C@@H]3CCC4=CC(=O)C=C[C@]4(C)[C@@]3(F)[C@@H](O)C[C@]2(C)[C@@]1(O)C(=O)CO [Dexamethasone, reference compound] | Q3 | > 50 | > 50 | Q3 | – | > 20 | – | > 20 | > 20 | > 20000 | > 20 | 15 | 15 | 15 | – | – | – | Quadrant (FIG. 5b) ([1]; Table 2, screen at 10 μM): Q3; IC50 ([2]; Rattus norvegicus, Microglia, Table 7, read-out: LPS_IC50): 0.002 µM; IC50 ([6]; Rattus norvegicus, Microglia, Table 7, read-out: fib_IC50): 0.002 µM
CC1(C)O[C@@H]2C[C@H]3[C@@H]4C[C@H](F)C5=CC(=O)C=C[C@]5(C)[C@H]4[C@@H](O)C[C@]3(C)[C@]2(C(=O)CO)O1 [Flunisolide, reference compound] | Q2 | > 50 | > 50 | Q2 | Q2 | < 0.001 | 101 | < 0.001 | < 0.001 | > 20000 | > 20 | < 0.001 | < 0.001 | < 0.001 | 104 | – | – | –
C[C@]12C=CC(=O)C=C1CC[C@H]1[C@@H]3C[C@@H](O)[C@](O)(C(=O)CO)[C@@]3(C)C[C@H](O)[C@@]12F [Triamcinolone, reference compound] | – | > 50 | – | Q2 | Q2 | 0.4 | 99 | 0.4 | 0.4 | > 20000 | > 20 | 0.04 | 0.04 | 0.04 | 107 | Q2 | > 20 | inhibition at 10 µM [1, 22]: > 50%; IC50 [2, 23]: 0.4 µM; inhibition at 10 µM ([2]; Rattus norvegicus, Microglia, 10 μM, LPS-stimulated, cell size >800 μm^2 as marker of activation): -14%; IC50 (in vitro [5]; Table 3): > 20 µM; Fibrin Selectivity [6]: 10; Fibrin Selectivity (LOG10) [6]: 1.00; IC50 [6, 24]: 0.04 µM; inhibition at 10 µM ([6]; Rattus norvegicus, Microglia, 10 μM, fibrin-stimulated, cell size >800 μm^2 as marker of activation): -2%
CC[C@@]1(O)C(=O)OCc2c1cc1n(c2=O)Cc2cc3c([N+](=O)[O-])cccc3nc2-1 [Rubitecan, reference compound] | Q3 | > 50 | – | Q3 | Q3 | 9 | 30 | 9 | 9 | > 20000 | > 20 | 2 | 2 | 2 | 73 | Q3 | > 20 | inhibition at 10 µM [1, 22]: > 50%; IC50 [2, 23]: 9 µM; IC50 (in vitro [5]; Table 3): > 20 µM; IC50 [6, 24]: 2 µM
COc1cc2c(cc1O)CC[C@@H]1[C@@H]2CC[C@]2(C)[C@@H](O)CC[C@@H]12 [2-methoxyestradiol, reference compound] | Q2 | – | – | Q2 | Q2 | – | – | – | – | – | – | – | – | – | – | Q2 | > 20 | LPS % cell toxicity (primary rat microglia [8]): 2%; Hit ([1]; HTS hit classification): HIT (Hits were defined as molecules that exhibited greater than 50% inhibition of either fibrin or LPS activation); Cherry-picked Hit (Suppl. Table 7) ([1]; Table 3): HIT (Hits were defined as molecules that exhibited greater than 50% inhibition of either fibrin or LPS activation); Cherry-picked Hit (Suppl. Table 7) [1, 25]: HIT (Hits were defined as molecules that exhibited greater than 50% inhibition of either fibrin or LPS activation); IC50 [2, 26]: 5 µM; IC50 [2, 27]: 5 µM; IC50 ([2]; Table 3, read-out: LPS IC50 (uM) (Suppl. Table 7)): 5 µM; IC50 [2, 28]: 5 µM; LPS % inhibition [2, 29]: 65%; Fibrin % cell toxicity (primary rat microglia [9]): 2%; IC50 (primary rat microglia [3]; Table 3): > 20 µM; Fibrin Selectivity [6]: 2; Fibrin Selectivity (LOG10) [6]: 0.21; IC50 ([6]; Table 1, dose response 0.001-20 μM, triplicates, primary rat microglia, 48 h, read-out: Fibrin IC50): 3 µM; IC50 ([6]; Table 3, read-out: Fibrin IC50 (uM) (Suppl. Table 7)): 3 µM; IC50 ([6]; dose response, fibrin-induced microglia activation, read-out: Fibrin IC50): 3 µM; IC50 ([6]; fibrin-induced microglia activation, dose response, read-out: Fibrin IC50 (uM) (Suppl. Table 7)): 3 µM; Fibrin % inhibition [6, 30]: 63%; IC50 (primary rat microglia [7]; read-out: Cell Toxicity IC50 (uM) [cFib assay], Table 3): > 20 µM; IC50 (primary rat microglia [7]; [31]): > 20 µM
CC(=O)[C@@]1(O)CC[C@H]2[C@@H]3C=C(Cl)C4=CC(=O)[C@@H]5C[C@@H]5[C@]4(C)[C@H]3CC[C@@]21C [Cyproterone, reference compound] | Q3 | – | – | Q3 | Q3 | – | – | – | – | – | – | – | – | – | – | – | > 20 | LPS % cell toxicity (primary rat microglia [8]): 0%; Hit ([1]; HTS hit classification): HIT (Hits were defined as molecules that exhibited greater than 50% inhibition of either fibrin or LPS activation); Cherry-picked Hit (Suppl. Table 7) [1, 25]: HIT (Hits were defined as molecules that exhibited greater than 50% inhibition of either fibrin or LPS activation); IC50 [2, 26]: > 20 µM; IC50 [2, 27]: > 20 µM; IC50 [2, 28]: > 20 µM; LPS % inhibition [2, 29]: 5%; Fibrin % cell toxicity (primary rat microglia [9]): 1%; Fibrin % inhibition [6, 30]: 51%; IC50 (primary rat microglia [7]; [31]): > 20 µM
CC[C@@H](C(=O)[C@@H](C)[C@@H](O)[C@H](C)[C@@H]1O[C@@H]([C@@H](CC)C(=O)O)CC[C@@H]1C)[C@H]1O[C@]2(C=C[C@@H](O)[C@]3(CC[C@@](C)([C@H]4CC[C@](O)(CC)[C@H](C)O4)O3)O2)[C@H](C)C[C@@H]1C [Salinomycin, sodium, reference compound] | Q2 | > 50 | > 50 | Q2 | Q2 | 2 | 101 | 2 | 2 | – | > 20 | 2 | 2 | 2 | 100 | – | – | Activity ([1]; sodium): fib/LPS; LPS % cell toxicity (primary rat microglia [3]): 1%; IC50 (primary rat microglia [7]; Rattus norvegicus, Microglia, read-out: dead_IC50 (uM), Table 7, fibrin or LPS assay not specified): 3.86 µM; Fibrin % cell toxicity (primary rat microglia [7]): 3%
